The target of experiment [1] is T1, Estrogen receptor beta (Homo sapiens, UniProt Q92731). Kind of experiment: ERβ–SRC-3 coactivator interaction inhibitors, confirmation, orthogonal assay, biochemical, ELISA, streptavidin-HRP readout (AID 1060). In general terms: ELISA stands for enzyme-linked immunosorbent assay.
Experiment [2] concerns the target T1, Estrogen receptor beta.
The nature of experiment [3]: Shn3 3'UTR reporter inhibitors, dose response, cell-based, Clone20 osteoblasts, firefly luciferase, cherry-picked (AID 624132).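 Further: firefly luciferase luminescence from reporter carrying the Shn3 3'UTR in osteoblasts.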 It is filed as functional.
The nature of experiment [4]: HepG2 cell cytotoxicity, dose response, cytotoxicity control for Shn3 inhibitor project, CellTiter-Glo, cherry-picked (AID 624134). It is filed as functional, cell-based. On the technique in general: In ATP-based viability assays light output follows the ATP content of the culture.
Experiment [5] concerns the target T2, Neuropeptide Y receptor type 2 (Homo sapiens, UniProt P49146).
T2 sequence (P49146 whole entry): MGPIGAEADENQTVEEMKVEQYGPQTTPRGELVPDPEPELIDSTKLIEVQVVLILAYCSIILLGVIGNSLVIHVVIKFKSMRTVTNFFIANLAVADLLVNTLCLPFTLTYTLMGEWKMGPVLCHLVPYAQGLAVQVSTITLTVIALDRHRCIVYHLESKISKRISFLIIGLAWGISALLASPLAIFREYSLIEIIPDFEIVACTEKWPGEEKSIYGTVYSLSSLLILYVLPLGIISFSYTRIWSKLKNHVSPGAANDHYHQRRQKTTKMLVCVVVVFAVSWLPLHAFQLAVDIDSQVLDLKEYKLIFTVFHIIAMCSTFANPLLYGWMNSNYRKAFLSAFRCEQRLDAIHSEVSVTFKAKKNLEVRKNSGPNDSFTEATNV
Kind of experiment: NPY-Y2 antagonist potency, selectivity check, dose response, counter-screen for NPY-Y1 antagonist project, cell-based (AID 1278). It is filed as functional. (Counterscreens check selectivity or assay interference.)

Experiment [6] has as its target T3, Neuropeptide Y receptor type 1 (Homo sapiens, UniProt P25929).
T3 sequence (P25929 whole entry): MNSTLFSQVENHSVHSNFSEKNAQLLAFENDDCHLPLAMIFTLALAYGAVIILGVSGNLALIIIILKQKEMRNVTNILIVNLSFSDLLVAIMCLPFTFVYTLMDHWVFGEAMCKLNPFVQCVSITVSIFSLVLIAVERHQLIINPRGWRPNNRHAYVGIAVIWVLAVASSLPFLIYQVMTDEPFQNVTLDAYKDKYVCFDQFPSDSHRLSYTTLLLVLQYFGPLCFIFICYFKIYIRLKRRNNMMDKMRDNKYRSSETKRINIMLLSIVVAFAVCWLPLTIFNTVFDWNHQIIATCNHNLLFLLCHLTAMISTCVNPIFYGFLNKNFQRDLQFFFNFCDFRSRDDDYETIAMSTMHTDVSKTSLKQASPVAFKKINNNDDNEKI
Kind of experiment: NPY-Y1 receptor antagonist potency, dose response, cell-based (AID 1277). It is filed as functional.

The nature of experiment [7]: HEp-2 cell cytotoxicity, dose response, cytotoxicity control for RSV inhibitor project, HTS (AID 2410). It is filed as functional. The following applies: human respiratory syncytial virus.
Experiment [8] in a line: control 3'UTR Renilla luciferase suppression, dose response, counter-screen for Shn3 inhibitor project, cell-based, Clone20-Shn3RL, cherry-picked (AID 624133). It is filed as functional.
For experiment [9], the target named is T4, Replicative DNA helicase DnaB (Mycobacterium tuberculosis, UniProt P9WMR3).
T4 sequence (P9WMR3 whole entry): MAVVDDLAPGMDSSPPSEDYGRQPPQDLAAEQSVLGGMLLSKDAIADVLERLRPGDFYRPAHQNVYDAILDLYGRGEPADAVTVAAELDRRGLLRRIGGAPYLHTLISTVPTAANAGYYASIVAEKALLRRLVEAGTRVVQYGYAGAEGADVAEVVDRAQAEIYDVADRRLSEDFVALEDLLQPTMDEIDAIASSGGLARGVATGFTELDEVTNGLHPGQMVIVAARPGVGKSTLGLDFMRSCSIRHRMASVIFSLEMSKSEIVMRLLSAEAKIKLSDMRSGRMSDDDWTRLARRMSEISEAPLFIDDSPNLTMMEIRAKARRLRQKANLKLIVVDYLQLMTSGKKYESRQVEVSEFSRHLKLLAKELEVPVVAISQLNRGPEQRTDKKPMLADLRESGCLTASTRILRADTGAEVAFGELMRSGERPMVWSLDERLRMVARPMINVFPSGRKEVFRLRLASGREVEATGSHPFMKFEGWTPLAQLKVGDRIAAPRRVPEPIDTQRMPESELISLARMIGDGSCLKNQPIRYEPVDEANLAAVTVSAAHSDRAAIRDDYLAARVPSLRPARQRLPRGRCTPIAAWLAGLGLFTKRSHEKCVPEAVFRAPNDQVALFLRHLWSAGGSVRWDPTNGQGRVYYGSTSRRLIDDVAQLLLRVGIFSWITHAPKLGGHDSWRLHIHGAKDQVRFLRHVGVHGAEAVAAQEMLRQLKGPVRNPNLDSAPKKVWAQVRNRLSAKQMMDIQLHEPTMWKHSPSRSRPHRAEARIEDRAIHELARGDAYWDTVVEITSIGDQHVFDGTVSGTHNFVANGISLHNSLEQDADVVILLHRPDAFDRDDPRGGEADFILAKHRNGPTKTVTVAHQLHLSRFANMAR
Kind of experiment: DnaB intein splicing inhibitors, dose response, biochemical, cell-free fluorescence (AID 449749). It is filed as functional.

Experiment [10] has as its target T5, Protein Tat (Human immunodeficiency virus type 1 group M subtype B (isolate HXB2)(HIV-1), UniProt P04608).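 Further: tat binding to TAR RNA read out by fluorescence polarization.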
T5 sequence (P04608 whole entry): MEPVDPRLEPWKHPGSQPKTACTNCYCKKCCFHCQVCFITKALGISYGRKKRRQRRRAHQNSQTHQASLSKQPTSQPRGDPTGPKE
It is filed as functional.

For experiment [11], the target named is T6, Apoptotic protease-activating factor 1 (Homo sapiens, UniProt O14727).
T6 sequence (O14727 whole entry): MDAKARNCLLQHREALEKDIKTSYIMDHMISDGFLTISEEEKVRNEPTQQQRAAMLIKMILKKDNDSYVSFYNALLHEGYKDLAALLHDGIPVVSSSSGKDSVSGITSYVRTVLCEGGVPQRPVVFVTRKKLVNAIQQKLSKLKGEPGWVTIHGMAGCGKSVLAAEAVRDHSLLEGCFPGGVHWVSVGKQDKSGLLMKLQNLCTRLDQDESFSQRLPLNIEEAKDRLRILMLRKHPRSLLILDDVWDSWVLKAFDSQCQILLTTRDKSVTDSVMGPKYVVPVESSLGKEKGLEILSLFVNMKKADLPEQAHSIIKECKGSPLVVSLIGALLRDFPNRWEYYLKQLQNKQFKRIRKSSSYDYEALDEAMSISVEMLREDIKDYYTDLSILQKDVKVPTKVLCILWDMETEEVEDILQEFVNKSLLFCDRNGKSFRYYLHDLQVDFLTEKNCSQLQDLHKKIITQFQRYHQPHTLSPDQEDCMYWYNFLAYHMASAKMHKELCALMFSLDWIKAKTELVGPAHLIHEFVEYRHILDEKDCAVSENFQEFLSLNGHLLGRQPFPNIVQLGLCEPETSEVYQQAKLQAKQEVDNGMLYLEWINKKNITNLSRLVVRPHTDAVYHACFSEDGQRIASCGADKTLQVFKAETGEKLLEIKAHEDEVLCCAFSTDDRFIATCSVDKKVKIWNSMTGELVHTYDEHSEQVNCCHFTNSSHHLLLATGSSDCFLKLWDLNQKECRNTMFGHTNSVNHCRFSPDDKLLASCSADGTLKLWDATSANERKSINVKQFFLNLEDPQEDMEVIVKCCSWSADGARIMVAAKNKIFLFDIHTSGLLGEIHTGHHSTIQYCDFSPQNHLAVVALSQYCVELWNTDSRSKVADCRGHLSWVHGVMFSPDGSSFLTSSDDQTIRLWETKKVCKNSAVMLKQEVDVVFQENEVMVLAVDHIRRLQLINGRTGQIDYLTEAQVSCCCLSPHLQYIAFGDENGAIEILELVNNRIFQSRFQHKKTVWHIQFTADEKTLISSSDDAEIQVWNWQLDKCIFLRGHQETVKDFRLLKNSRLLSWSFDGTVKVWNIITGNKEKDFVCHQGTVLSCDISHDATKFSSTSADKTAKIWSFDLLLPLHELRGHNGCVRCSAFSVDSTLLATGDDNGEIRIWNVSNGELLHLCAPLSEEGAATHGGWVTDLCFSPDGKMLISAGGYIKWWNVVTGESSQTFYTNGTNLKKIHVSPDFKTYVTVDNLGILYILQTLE
It is filed as functional.

In experiment [12] the target is T7, Protein RecA (Mycobacterium tuberculosis, UniProt P9WHJ3).
T7 sequence (P9WHJ3 whole entry): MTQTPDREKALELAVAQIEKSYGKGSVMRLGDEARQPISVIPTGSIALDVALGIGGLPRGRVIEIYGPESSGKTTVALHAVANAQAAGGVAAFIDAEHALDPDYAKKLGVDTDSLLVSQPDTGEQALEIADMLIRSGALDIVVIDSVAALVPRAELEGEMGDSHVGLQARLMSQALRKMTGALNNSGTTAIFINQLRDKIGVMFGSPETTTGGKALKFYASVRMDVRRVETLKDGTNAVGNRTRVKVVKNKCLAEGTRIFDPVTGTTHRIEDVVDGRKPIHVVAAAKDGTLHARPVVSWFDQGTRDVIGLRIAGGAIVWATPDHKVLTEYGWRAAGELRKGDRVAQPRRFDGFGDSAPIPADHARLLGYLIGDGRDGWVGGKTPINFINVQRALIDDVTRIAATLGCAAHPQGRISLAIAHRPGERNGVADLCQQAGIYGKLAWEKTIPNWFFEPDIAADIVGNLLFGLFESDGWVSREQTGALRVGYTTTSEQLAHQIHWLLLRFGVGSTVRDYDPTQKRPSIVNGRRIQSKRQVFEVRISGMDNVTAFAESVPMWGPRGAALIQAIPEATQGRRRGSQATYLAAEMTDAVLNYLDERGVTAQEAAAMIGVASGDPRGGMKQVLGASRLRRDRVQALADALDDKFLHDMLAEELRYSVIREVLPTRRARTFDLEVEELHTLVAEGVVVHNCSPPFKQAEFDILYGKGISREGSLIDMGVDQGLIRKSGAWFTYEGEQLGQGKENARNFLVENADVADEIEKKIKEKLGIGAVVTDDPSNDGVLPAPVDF
Kind of experiment: Fluorescence Cell-Free Homogeneous Dose Retest to Identify Inhibitors of RecA-Intein Splicing Activity. [Related pubchem assays (depositor defined):AID2097, AID2223, AID489010, AID492950]. It is filed as functional.

Active and inactive are the calls of the source.

T1 sequence (Q92731 whole entry): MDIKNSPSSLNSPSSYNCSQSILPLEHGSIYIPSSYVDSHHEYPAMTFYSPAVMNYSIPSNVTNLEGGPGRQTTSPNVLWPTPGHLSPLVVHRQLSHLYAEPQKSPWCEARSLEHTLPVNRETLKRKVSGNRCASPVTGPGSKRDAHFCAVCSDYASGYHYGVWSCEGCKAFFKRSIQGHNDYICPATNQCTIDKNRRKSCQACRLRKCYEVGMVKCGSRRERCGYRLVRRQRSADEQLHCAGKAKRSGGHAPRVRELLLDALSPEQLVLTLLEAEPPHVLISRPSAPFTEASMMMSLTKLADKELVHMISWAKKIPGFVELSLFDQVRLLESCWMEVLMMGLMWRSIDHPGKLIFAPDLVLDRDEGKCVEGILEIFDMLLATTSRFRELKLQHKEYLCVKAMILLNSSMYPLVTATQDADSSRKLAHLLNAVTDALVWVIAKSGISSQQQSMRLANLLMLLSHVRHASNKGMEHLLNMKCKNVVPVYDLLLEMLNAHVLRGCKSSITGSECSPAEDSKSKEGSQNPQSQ

For orientation: IC50 means the concentration that gives 50% inhibition. In the case of `O=C(CSc1nnc(Nc2ccccc2F)s1)NCc1ccco1`, the half-maximal inhibitory concentration (IC50) in [1] was 0.142 µM (not active); in experiment [2], 13.7 µM (active).
The term AC50 denotes the concentration at which the activity in the assay is half-maximal. As a reminder, the CC50 is the concentration that lowers cell viability or growth by half. `CC(C)(C)n1nnnc1C(c1ccc(C(F)(F)F)cc1)N(Cc1ccccc1)Cc1ccco1` (stereo not given): the AC50 in experiment [3] is 4.74 µM (active); in [4], 44.1 µM (active); in experiment [8] it was 6.74 µM (active). In addition, the IC50 in [5] and in [6] was > 35 µM (not active) in each case. Further, the CC50 in experiment [7] is 9.91 µM (active).
On to `N#CC(C(=O)Nc1ccccc1)=C1CCCCC1`, for which the IC50 in experiment [2] is reported as > 50 µM (not active).
With `NC(=O)Cc1c[nH]c2cccc(O)c12`, the IC50 in experiment [1] was > 50 µM (not active).
A word on the EC50: it is the concentration at which the effect is half-maximal. Take `Nc1ccc(Oc2ncccn2)cc1`: the AC50 in experiment [9] was 29.6 µM (active). Also, the IC50 in [10] is > 100 µM (active); in experiment [11] it was 25.7 µM (active). In experiment [12], the EC50 was 13.8 µM (active).
As for `O=S(=O)(Nc1ccc(N2CCOCC2)cc1)c1cccs1`, the IC50 in [1] is recorded as > 50 µM (not active).

Source of the values: ChEMBL document CHEMBL1201862, “PubChem BioAssay data set” (2004).
